Test results: US12715893B2, “Oxysterol compounds and uses thereof” (MAX BIOPHARMA, INC., priority 2020, dated 2026)

Legend:
[1] = system: Hedgehog target gene Gli1; assay: Expression of Hedgehog target gene Gli1 (quantitative RT-PCR) in NIH3T3 cells; format: cell-based; conditions: for effect on Hh signaling (relative expression of Gli1) / effect on Gli/Hh signaling in cells treated with Conditioned Medium (relative expression of Gli1): 5 μM and 10 μM; for effect on Hh signaling (relative expression of Gli1): vs DMSO control (FIG. 5); for effect on Gli/Hh signaling in cells treated with Conditioned Medium (relative expression of Gli1): CAPAN-1 conditioned medium (CM), vs CM (FIG. 5, FIG. 7)
Method: (§1) The compounds described herein were tested on cell cultures to assess their effects on the mRNA expression of Hedgehog target genes Gli1. Conditioned medium (CM) was collected from CAPAN-1 human pancreatic tumor cells grown to confluence in DMEM containing 10% fetal bovine serum (FBS) and contains Hh proteins that activate the Hh pathway in cells receiving the CM. After 7 days of incubation of confluent cells with the described medium, CM was collected, spun for 5 minutes at 1800 rpm to remove dead cells and debris, and then frozen at −80° C. For treating cells, CM was thawed and diluted 1:2 to 1:6 with DMEM containing 5% FBS. NIH3T3 cells and M2 cells were cultured in 12-well plates with DMEM containing 10% FBS. The cells were then treated with DMEM containing 5% FBS or CM in the presence or absence of the compounds prepared in DMSO when they reach confluence. Quantitative RT-PCR was then performed according to the following approach. After 72 to 96 hours of the treatments, the cells were lysed and subjected to RNA extraction with RNease Plus Min kit (Qiagen). A portion of RNA from each well was subjected to Reverse Transcription (RT) using iScript Reverse Transcription Supermix (BioRad). QPCR was performed to test the expression of Hh target gene Gli1 using IQ SYBR Green Supermix (BioRad).

[2] = system: Hedgehog target gene Gli1; assay: Expression of Hedgehog target gene Gli1 (quantitative RT-PCR) in M2 cells; format: cell-based; conditions: 5% FBS in DMEM, 1 μM and 5 μM, vs DMSO control (FIG. 6)
Method: as §1

[3] = system: Hh signaling; conditions: background statement; Compound 8 in mesenchymal cells; cited from earlier work
[4] = system: TGFβ signaling; conditions: background statement; cited from earlier work
[5] = system: Hedgehog target gene Gli1; assay: Expression of Hedgehog target gene Gli1 (Q-RT-PCR, normalized to Oaz1) in C3H10T1/2 cells; format: cell-based; conditions: 5 μM and 10 μM, 72 hours (FIG. 9)
Method: as §1, with “A portion of RNA from each well was subjected to Reverse Transcription (RT) using iScript Reverse Transcription Supermix (BioRad). QPCR was performed to test the expression of Hh target gene Gli1 using IQ SYBR Green Supermix (BioRad).” left out
In a similar manner, C3H10T1/2 cells were pretreated for 2 hours with Compound 17 in DMEM containing 5% FBS. […] After 72 hours, RNA was extracted and analyzed by Q-RT-PCR for the expression of Hh target gene Gli1 and normalized to Oaz1 expression.

Row | SMILES | effect on Gli signaling (relative expression of Gli1) [2] | effect on Hh signaling [3] | further results
1 | C[C@]12CC[C@H]3[C@@H](CC=C4C[C@@H](O)CC[C@@]43C)[C@@H]1CC[C@@H]2[C@H](O)CCc1ccc(F)cc1 [Compound 1, (3S,8S,9S,10R,13S,14S,17S)-17-((R)-3-(4-fluorophenyl)-1-hydroxypropyl)-10,13-dimethyl-2,3,4,7,8,9,10,11,12,13,14,15,16,17-tetradecahydro-1H-cyclopenta[a]phenanthren-3-ol] | stimulate Gli signaling | – | effect on Hh signaling (relative expression of Gli1) ([1]; 5% FBS in DMEM): increase Hh signaling
2 | C[C@]12CC[C@H](O)C[C@@H]1CC[C@@H]1[C@@H]2CC[C@]2(C)[C@@H]([C@H](O)CCc3ccc(F)cc3)CC[C@@H]12 [Compound 2, (3S,5S,8R,9S,10S,13S,14S,17S)-17-((R)-3-(4-fluorophenyl)-1-hydroxypropyl)-10,13-dimethylhexadecahydro-1H-cyclopenta[a]phenanthren-3-ol] | – | – | effect on Hh signaling (relative expression of Gli1) ([1]; 5% FBS in DMEM): increase Hh signaling, although Compound 2 to a lesser degree than Compound 1; effect on Gli/Hh signaling in cells treated with Conditioned Medium (relative expression of Gli1) [1]: weak Hh antagonist
3 | C[C@]12CC[C@H](O)C[C@@H]1[C@@H](O)C[C@@H]1[C@@H]2CC[C@]2(C)[C@@H]([C@H](O)CCc3ccc(F)cc3)CC[C@@H]12 [Compound 5, (3S,5S,6S,8S,9S,10R,13S,14S,17S)-17-((R)-3-(4-fluorophenyl)-1-hydroxypropyl)-10,13-dimethylhexadecahydro-1H-cyclopenta[a]phenanthrene-3,6-diol] | stimulate Gli signaling | – | –
4 | CC[C@@](O)(CCc1cccnc1)[C@H]1CC[C@H]2[C@@H]3CC[C@H]4C[C@@H](O)CC[C@]4(C)[C@H]3CC[C@]12C [Compound 6, (3S,5S,8R,9S,10S,13S,14S,17S)-17-((R)-3-hydroxy-1-(pyridin-3-yl)pentan-3-yl)-10,13-dimethylhexadecahydro-1H-cyclopenta[a]phenanthren-3-ol] | – | – | effect on baseline expression of Gli ([1]; 5% FBS in DMEM, 10 μM, vs DMSO control (FIG. 8)): lowers the baseline expression of Gli; effect on Gli/Hh signaling in cells treated with Conditioned Medium (relative expression of Gli1) [1]: inhibits Gli signaling
5 | CC(C)CCC[C@](C)(O)[C@H]1CC[C@H]2[C@@H]3CC=C4C[C@@H](O)CC[C@]4(C)[C@H]3CC[C@@]21C [Compound 8, 20(S)-hydroxycholesterol] | – | induces allosteric activation of Hh signaling | –
6 | CC(C)CC[C@@H](O)[C@](C)(O)[C@H]1CC[C@H]2[C@@H]3CC=C4C[C@@H](O)CC[C@]4(C)[C@H]3CC[C@]12C [Compound 9, 20α,22(R)-dihydroxycholesterol] | – | blocks Hh signaling | –
7 | CCCCCC[C@](C)(O)[C@H]1CC[C@H]2[C@@H]3C[C@H](O)[C@H]4C[C@@H](O)CC[C@]4(C)[C@H]3CC[C@@]21C [Compound 10, (3S,5S,6S,8R,9S,10R,13S,14S,17S)-17-((S)-2-hydroxyoctan-2-yl)-10,13-dimethylhexadecahydro-1H-cyclopenta[a]phenanthrene-3,6-diol, reference compound] | stimulate Gli signaling | Hh activator | –
8 | C[C@]12CC[C@H](O)C[C@@H]1CC[C@@H]1[C@@H]2CC[C@@]2(C)[C@H]1CC[C@@H]2[C@](C)(O)CCc1ccc(F)cc1 [Compound 11, (3S,5S,8R,9S,10S,13S,14S,17S)-17-((R)-4-(4-fluorophenyl)-2-hydroxybutan-2-yl)-10,13-dimethylhexadecahydro-1H-cyclopenta[a]phenanthren-3-ol] | – | Hh inhibitors | –
9 | C[C@]12CC[C@H]3[C@@H](CC=C4C[C@@H](O)CC[C@@]43C)[C@@H]1CC[C@@H]2[C@](C)(O)CCc1cccnc1 [Compound 12, (3S,8S,9S,10R,13S,14S,17S)-17-((R)-2-hydroxy-4-(pyridin-3-yl)butan-2-yl)-10,13-dimethyl-2,3,4,7,8,9,10,11,12,13,14,15,16,17-tetradecahydro-1H-cyclopenta[a]phenanthren-3-ol] | – | Hh inhibitors | effect on TGFβ signaling [4]: blocks TGFβ signaling
10 | C[C@]12CC[C@H](O)C[C@@H]1CC[C@@H]1[C@@H]2CC[C@]2(C)[C@@H](C(CCc3ccc(F)cc3)=NO)CC[C@@H]12 [Compound 17, 3-(4-fluorophenyl)-1-((3S,5S,8R,9S,10S,13S,14S,17S)-3-hydroxy-10,13-dimethylhexadecahydro-1H-cyclopenta[a]phenanthren-17-yl)propan-1-one oxime] | – | – | effect on Hh signaling (relative expression of Gli1) ([5]; 5% FBS in DMEM): activator of Hh signaling; effect on conditioned medium induced Gli1 expression ([5]; CAPAN-1 CM, 2 hours pretreatment): further enhances the conditioned medium induced Gli1 expression
